Literature values in paper PMC11084461, “The First Reciprocal Activities of Chiral Peptide Pharmaceuticals: Thymogen and Thymodepressin, as Examples” (International Journal of Molecular Sciences, 2024).
Read-outs that look alike come from different tables or passages of the source.

Tests used:
autoantibodies = system: autoantibodies; parameters: method as in ref 97 = [97]; 97. Krasilshchikova M. Leonov V. Zatsepina O. Deigin V. Immunosuppressor studies of Thymodepressin in the experimental autoimmune model Immunology 2009 5 290 294; settings: SJL/J mouse
[1] = system: hematopoietic progenitor cells; parameters: method as in ref 74 = [74]; 74. Semina O.V. Semenets T.N. Deigin V.I. Korotkov A.M. Vinogradova Y.E. Poverenny A.M. Stimulation with Thymogen (EW), a dipeptide that has immunoprotective properties to restore hematopoiesis in irr; settings: mice; for Protective effect on hematopoietic progenitor cells after Cytosar treatment: administered two days before Cytosar injection
thymocyte regeneration = system: thymocyte regeneration; parameters: method as in PMID 6971758; settings: same conditions for all isomers
[2] = system: hematopoietic stem cell progenitors; parameters: method as in ref 82 = [82]; 82. Vladimirskaya E.B. Osipova Y.E. Kaznacheev K.S. Ivanova K.A. Deigin V.I. Rumyantsev A.G. The effect of Thymodepressin on the proliferation of human hematopoietic progenitor cells Hematol. Transfus; settings: in vitro in methylcellulose, MTT test; dose range from 1 µg/mL to 10 µg/mL
mature T-lymphocyte = system: mature T-lymphocyte; parameters: method as in PMID 12360601; settings: indicated by changed CD25+ and CD69+ markers
[3] = system: colony-forming unit (CFU); parameters: method as in PMID 30927190; settings: lethally irradiated mice, i/p on days 1, 2 and 3 after allogeneic bone marrow transplantation
bone marrow cells = system: bone marrow cells; parameters: method as in PMID 16307056; settings: mice irradiated 4 Gy, treated seven days after irradiation, read on day eight
CFU-C-8 cells = system: CFU-C-8 cells; parameters: method as in PMID 19145362
psoriasis vulgaris = system: psoriasis vulgaris; parameters: method as in PMID 15199399
bone marrow = system: bone marrow; parameters: method as in ref 92 = [92]; 92. Dyadkin V.Y. Shamov B.A. The experimental application of Thymodepressin in patients with psoriasis Dermatology 2003 1 36; settings: pre-treatment two days before irradiation; seven days after irradiation, persisted 14 observation days
leukocytes = system: leukocytes; parameters: method as in ref 75 = [75]; 75. Vinogradova Y.E. Deigin V.I. Korotkov A.M. Semina O.V. Sements T.N. Poverenny A.M. Use of Thymogen for the treatment of patients with diseases of the blood system. The influence of Thymogen on the; settings: patients after polychemotherapy receiving Thymogen
[4] = experimental group (29 patients)

In the case of Cyclosporine [reference compound], the “Effective dose, prophylactic regimen” value (autoantibodies) is given as 20 to 50 mg/kg, the “Dose at which statistically significant effect was achieved” value (autoantibodies; prophylactic regimen) is given as 50 mg/kg and the “Protective effect on hematopoietic progenitor cells after Cytosar treatment” value [1] is given as “had no effect”.
In the case of D-Glu(D-Trp) [Thymodepressin], the “Influence on thymocyte regeneration (restoring E-rosette-forming units)” value (“Influence on thymocyte regeneration” below) (thymocyte regeneration) is listed as “effective inhibitors of thymocyte regeneration”, the “Cloning efficiency of hematopoietic stem cell progenitors” value [2] is listed as “suppresses the cloning efficiency of all hematopoietic stem cell progenitors” and the “Mature T-lymphocyte activation” value (mature T-lymphocyte) is listed as “suppression of mature T-lymphocyte activation”. The “Dose of most effective immunosuppression, therapeutic regimen” value (autoantibodies) was 0.7 mg/kg, the “Immunosuppressive effect, prophylactic regimen” value (autoantibodies; doses 0.14, 0.35 and 0.7 mg/kg) was “pronounced immunosuppressive effect” and the “Immunosuppressive effect, therapeutic regimen” value (autoantibodies; doses 0.14, 0.35 and 0.7 mg/kg) was “distinct immunosuppressive effect”. The “Persistence of effect after the end of the drug administration” value (autoantibodies; prophylactic regimen) was “over ten weeks”, the “Yield of colonies compared to the control animals” value [3] was “approximately four times” and the “Protective effect on hematopoietic progenitor cells after Cytosar treatment” value [1] was “completely protected”. For the same substance, the “Number of CFU-S-8 colonies” value ([1]; two days before Cytosar, after 3 h and up to seven days) was “restored the number of CFU-S-8 colonies to an intact level”, the “Rate of dividing bone marrow cells” value (bone marrow cells) was “below that of the intact control” and the “Number of leucocytes in the blood” value (CFU-C-8 cells; experimental animal, after administration of the peptide) was “dose-dependent transient decrease”. For the same substance, the “Number of committed CFU-C-8 cells in the S-phase of the cell cycle” value (CFU-C-8 cells; in vitro and in vivo) was “reducing the number of committed CFU-C-8 cells in the S-phase”, the Clinical improvement (psoriasis vulgaris; [4]) was 13 patients and the Significant clinical improvement (psoriasis vulgaris; [4]) was 16 patients. The “PASI (Psoriasis Area and Severity Index)” value (psoriasis vulgaris; experimental group (29 patients), 1st day of treatment, i/m 1 mL 0.1% solution) was 26.8, the “PASI (Psoriasis Area and Severity Index)” value (psoriasis vulgaris; experimental group, 21st day, three i/m courses of 1 mL 0.1% solution daily for five days) was 8.6 and the “Decrease in the PASI index” value (psoriasis vulgaris; experimental group, day 1 to day 21) was 70%. The “Bone marrow cell number (cellularity)” value (bone marrow) was “restored to an intact level”.
For D-Glu-D-Trp, the “Influence on thymocyte regeneration” value (thymocyte regeneration) is listed as “effective inhibitors of thymocyte regeneration”.
In the case of L-Glu-L-Trp [Thymogen], the “Influence on thymocyte regeneration” value (thymocyte regeneration) is given as “stimulating activity” and the “Average leukocyte count compared to the group receiving protocol treatment” value (leukocytes) is given as “doubled”.
For L-Glu–(L-Trp)-OH, the “Influence on thymocyte regeneration” value (thymocyte regeneration) is given as “stimulating activity”.
